Measured values as given in patent US7384558B2, “Compositions capable of inhibiting reactive oxygen and carbonyl species” (Baxter International Inc., priority 2004, dated 2008).
Where “and” joins values, the source holds several entries; their conditions need not be identical. Equal values may be shown once.

Assay: TEAC (Trolox equivalent antioxidant activity) ABTS decolorization assay
Details: for antioxidant activity as compared to the Vitamin E standard compound (Trolox): Table 1, statement in words; for TEAC (Ratio % Inhibition): ratio of % inhibition of antioxidant compound / % inhibition of Trolox; for TEAC (Slope): relative to Trolox as standard, slope of % inhibition vs concentration
Method: Tests were conducted to evaluate the antioxidant and carbonyl trapping properties of therapeutic compositions according to various embodiments of the present invention. A Trolox equivalent antioxidant activity (TEAC) test was conducted to assess the antioxidant properties as described below in greater detail.
The TEAC antioxidant activity was measured by the ABTS [2,2′-Azinobis-(3-ethylbenzothiazoline-6-sulphonic acid)] decolorization assay. In this method, a stable radical (ABTS radical cation) is formed, and the adsorption maxima is determined. See, for example, R. Ree, N. Pellegrini, A. Proteggente, A. Pannala, M. Yang and C. Rice-Evans, Antioxidant activity applying an improved ABTS radical cation decolorization assay, Free Rad. Biol. & Med., 26 (9/10), 1231-1237 (1999). The addition of antioxidant to the pre-formed radical cation reduces it to an extent and on a time-scale depending on the antioxidant activity, the concentration of the antioxidant and the duration of the reaction. Thus, the extent of reduction (decolorization) as percentage inhibition of the ABTS radical cation is determined as a function of concentration and time and calculated relative to the reactivity of Trolox as a standard under the same conditions. The TEAC value is calculated by the ratio of % of Inhibition of antioxidant compound/% Inhibition of Trolox.

| Compound | antioxidant activity as compared to the Vitamin E standard compound (Trolox) | TEAC (Ratio % Inhibition) | TEAC (Slope) |
| --- | --- | --- | --- |
| Cc1c(C)c2c(c(C)c1O)CCC(C)(CCN1CCN(C(=O)[C@@H](N)CS)CC1)O2 (some centres unmarked) [VE-CYS-1, N-[2-(6-Hydroxy-tetramethylchroman-2-yl)ethyl]-N′-(cysteinyl)-piperazine] | enhanced antioxidant activity | 1.4-1.5 | 1.4(r2 = 0.9997) |
| N-[2-(6-Hydroxy-tetramethylchroman-2-yl)ethyl]-N′-(penicillamyl)-piperazine [VE-PEN-1] | enhanced antioxidant activity | 1.6-2.1 | 1.3(r2 = 0.9996) |
| Cc1c(C)c2c(c(C)c1O)CCC(C)(CCON)O2 (centres unmarked) [VE-ONH2-1, 2-(6-Hydroxy-2,5,7,8-tetramethylchroman-2-yl)-1-(aminooxy)ethane] | – | 0.9-1.0 and 0.5-0.8 | 0.9(r2 = 0.9948) and 0.8(r2 = 0.9997) |
